# Results taken from patent US20220362386A1, “LIQUID COMPOSITIONS COMPRISING A LEVODOPA AMINO ACID CONJUGATE AND USES THEREOF” (NeuroDerm, Ltd., priority 2019, published 2022).
# Structures can show the parent of a compound that is named as a salt. Where two headings read alike, the source gives them in different places. Non-standard residues stand in square brackets, D forms with d. Residues, ends and D or L forms follow the SMILES beside them. Dopa = N[C@@H](Cc1ccc(O)c(O)c1)C(=O)O
# Tests used:
# [1] = In-vitro metabolism of LDAA compounds using liver microsomes; assay type: in vitro ADME, human; details: for half-life at 0.1 μM / microsomal CLint at 0.1 μM: both sexes, human, pooled human liver microsomes; for half-life at 0.1 μM: pH 7.4, 1.0E−07M, 0.1 mg/mL microsomal protein; for microsomal CLint at 0.1 μM: pH 7.4, calculated from the half-life; for microsomal CLint at 0.1 μM / % Compound Remaining 1st / % Compound Remaining 2nd / % Compound Remaining Mean: 1.0E−07M
# Method: The stability of test compounds in pooled human liver microsomes was determined on 96-well plates, wherein the test compounds were quantified at five time points by HPLC-MS/MS analysis. The assay matrix included mixed gender and a pool of 50 human liver microsomes, wherein the final microsomal protein concentration was 0.1 mg/mL. The test concentration was 0.1 μM with 0.01% DMSO, 0.25% acetonitrile and 0.25% methanol.
# Each test compound was pre-incubated for five minutes with pooled liver microsomes in phosphate buffer (pH 7.4) in a 37° C. shaking water-bath. The reaction was initiated by adding a nicotinamide adenine dinucleotide phosphate (NADPH)-generating system and incubating for 0, 15, 30, 45, and 60 min. The reaction was stopped by transferring the incubation mixture to acetonitrile/methanol. Samples were then mixed and centrifuged, wherein the supernatants were used for HPLC-MS/MS analysis.
# In each assay the four reference compounds propranolol, imipramine, verapamil and terfenadine were tested, wherein the propranolol and the imipramine are known to be relatively stable, while the verapamil and the terfenadine are known to be readily metabolized in human liver microsomes.
# All samples were analyzed by HPLC-MS/MS using selected reaction monitoring. The HPLC system consisted of a binary LC pump with autosampler, a C-18 column, and a gradient. The conditions were adjusted when necessary.
# Peak areas corresponding to the test compound were recorded. The amount of each compound remaining was calculated by comparing the peak area at each time point to time zero. The half-life is calculated from the slope of the initial linear range of the logarithmic curve of compound remaining (%) vs. time, assuming first order kinetics. In addition, the intrinsic clearance (Clint) was calculated from the half-life using the following equation:
# Clint(μL/min/mg protein)=0.693/(t1/2×protein concentration)
# The results of the in-vitro human liver microsome metabolism tests of various LDAA compounds (10^−7M), in their TFA salt forms, are provided in FIG. 1 and in Table 17, which presents the % of the compound remaining at times 0, 15, 30, 45 and 60 minutes, two half-life measurements and the Clint, calculated as detailed above.
# in vitro = details: human
# Method: Caco-2 cells are human intestinal epithelial cells derived from a colorectal adenocarcinoma.
# The assays are performed in both the apical to basolateral (A-B) and the B-A direction. The test compound is prepared at 10 μM in HBSS-HEPES (pH 7.4) with a final DMSO concentration of 1%. The working solution is centrifuged, and the supernatant is added to the donor side. The assay plate is incubated at 37° C. with gentle shaking for 60 min or 40 min for the A-B or B-A assay, respectively. For Pgp substrate assessment, the assays are run with and without 100 μM verapamil on both the A and B sides. For BCRP substrate assessment, the assays are run with and without 10 μM Ko143 on both the A and B sides. For MRP2 substrate assessment, the assays are run with and without 100 μM MK571 on both the A and B sides. Samples are aliquoted from the donor side at time zero and the end point, and from the receiver side at the end point.
# Propranolol (highly permeable), labetalol (moderately permeable), ranitidine (poorly permeable), and colchicine (P-glycoprotein substrate), estrone-3-sulfate (BCRP substrate), or CDCF (MRP2 substrate) are included in each assay.
# Samples are analyzed by HPLC-MS/MS using selected reaction monitoring. The HPLC system consists of a binary LC pump with an autosampler, a C-18 column, and a gradient. Conditions may be adjusted when necessary.
# Fluorescein permeability is assessed in the A-B direction at pH 7.4 on both sides after the permeability assay with the test compound. The cell monolayer with a fluorescein permeability of less than 1.5×10−6 cm/s is considered intact.
# The apparent permeability coefficient (Papp) of the test compound and its recovery are calculated as follows: […]
# A is the surface area of the cell monolayer (0.11 cm^2). C is concentration of the test compound, expressed as peak area. D denotes donor and R is receiver. 0, mid, and end denote time zero, mid-point, and end of the incubation. Δt is the incubation time. V is the volume of the donor or receiver.
# The permeability capabilities of the several LDAA compounds, in their TFA salt form, were determined using the Caco-2 B-A method.
# human plasma = test: Protein binding, solid phase extraction (SPE) method; assay type: in vitro ADME; details: 1.0E−05M; SPE sample preparation
# Method: (§1) A solid phase extraction (SPE) method was used to prepare samples for several compounds in the plasma protein binding assay. The following SPE protocols were followed:
# (§2) Sorbent: Waters Oasis MCX 96—well MicroElution Plate—Cat #186001830BA Sample: 200 μL of plasma spiked at 10 μM with test compound. Sample was diluted 1:1 with 4% phosphoric acid in water and mixed for 15 minutes 1) Place Oasis plate on vacuum manifold and set vacuum to 5″ Hg; 2) Condition with 200 μL methanol; 3) Equilibrate with 200 μL water; 4) Load dilute plasma sample; 5) Wash with 200 μL 2% formic acid in water; 6) Wash with 400 μL methanol; and 7) Elute with 100 μL 5% NH4OH in methanol.
# as §2, with “MAX 96-well” for “MCX 96—well”, “plate—Cat #186001829” for “Plate—Cat #186001830BA”, “5% NH4OH” for “2% formic acid”, “2% formic acid” for “5% NH4OH”
# [2] = as above; assay type: in vitro ADME, human; details: human, human plasma, 1.0E−05M, SPE sample preparation
# Method: as §1, §2
# as §2, with “MAX 96-well” for “MCX 96—well”, “plate—Cat #186001829” for “Plate—Cat #186001830BA”, “5% NH4OH” for “2% formic acid”, “2% formic acid” for “5% NH4OH”
# [3] = read-out: Half-Life (minute) 1st
# [4] = read-out: Half-Life (minute) 2nd
# [5] = read-out: Half-Life (minute) Mean
# [6] = Caco-2, pH 7.4, Percent Recovery 1st
# [7] = Caco-2, pH 7.4, Percent Recovery 2nd
# [8] = Caco-2, pH 7.4, Percent Recovery Mean
# [9] = Caco-2, pH 7.4, Permeability 1st
# [10] = Caco-2, pH 7.4, Permeability 2nd
# [11] = Caco-2, pH 7.4, Permeability Mean
"half-life at 0.1 μM [1, 3]","half-life at 0.1 μM [1, 4]","half-life at 0.1 μM [1, 5]",microsomal CLint at 0.1 μM [1],% Compound Remaining 1st ([1]; incubation time 0 minutes),% Compound Remaining 2nd ([1]; incubation time 0 minutes),% Compound Remaining Mean ([1]; incubation time 0 minutes),% Compound Remaining 1st ([1]; incubation time 15 minutes),% Compound Remaining 2nd ([1]; incubation time 15 minutes),% Compound Remaining Mean ([1]; incubation time 15 minutes),% Compound Remaining 1st ([1]; incubation time 30 minutes),% Compound Remaining 2nd ([1]; incubation time 30 minutes),% Compound Remaining Mean ([1]; incubation time 30 minutes),% Compound Remaining 1st ([1]; incubation time 45 minutes),% Compound Remaining 2nd ([1]; incubation time 45 minutes),% Compound Remaining Mean ([1]; incubation time 45 minutes),% Compound Remaining 1st ([1]; incubation time 60 minutes),% Compound Remaining 2nd ([1]; incubation time 60 minutes),% Compound Remaining Mean ([1]; incubation time 60 minutes),"recovery at 40 min, 10 μM (in vitro; [6])",Compound,further results
64 min,61.4 min,> 60 min,< 116 µL/min/mg,100%,100%,100%,108.6%,{96.6} %,109%,115.2%,92.2%,104%,70.5%,63.1%,67%,55.1%,51.6%,53%,71%,"N[C@@H](Cc1ccc(O)c(O)c1)C(=O)N[C@@H](Cc1c[nH]c2ccccc12)C(=O)O [LD-Trp TFA salt, Levodopa Tryptophan] (H-[Dopa]-Trp-OH)","recovery at 40 min, 10 μM (in vitro; [7]): 82%; recovery at 40 min, 10 μM (in vitro; [8]): 77%; Papp B→A at 40 min, 10 μM (in vitro; [9]): 0.01 ×10⁻⁶ cm/s; Papp B→A at 40 min, 10 μM (in vitro; [10]): 0.01 ×10⁻⁶ cm/s; Papp B→A at 40 min, 10 μM (in vitro; [11]): < 0.01 ×10⁻⁶ cm/s"
74.4 min,77.3 min,> 60 min,< 116 µL/min/mg,100%,100%,100%,92.8%,96.4%,95%,79.9%,88.6%,84%,66.1%,59.7%,63%,58.9%,64.9%,62%,85%,"NC(=O)C[C@H](NC(=O)[C@@H](N)Cc1ccc(O)c(O)c1)C(=O)O [LD-Asn TFA salt, Levodopa Asparagine TFA Salt] (H-[Dopa]-Asn-OH)","recovery at 40 min, 10 μM (in vitro; [7]): 84%; recovery at 40 min, 10 μM (in vitro; [8]): 85%; Papp B→A at 40 min, 10 μM (in vitro; [9]): 0.42 ×10⁻⁶ cm/s; Papp B→A at 40 min, 10 μM (in vitro; [10]): 0.39 ×10⁻⁶ cm/s; Papp B→A at 40 min, 10 μM (in vitro; [11]): 0.4 ×10⁻⁶ cm/s"
–,–,–,–,–,–,–,–,–,–,–,–,–,–,–,–,–,–,–,–,"N[C@@H](Cc1ccc(O)c(O)c1)C(=O)N[C@@H](CC(=O)O)C(=O)O [LD-Asp TFA salt, Levodopa Aspartic Acid] (H-[Dopa]-Asp-OH)",% Protein Bound 1st (human plasma): 47.8%; % Protein Bound 2nd (human plasma): 34.1%; % Protein Bound Mean (human plasma): 41%; recovery at 10 μM ([2]; read-out: % Recovery 1st): 55%; recovery at 10 μM ([2]; read-out: % Recovery 2nd): 64%; recovery at 10 μM ([2]; read-out: % Recovery Mean): 60%
139 min,87.3 min,> 60 min,< 116 µL/min/mg,100%,100%,100%,{129.4%,110.4%,110%,{125.6%,77.6%,78%,79.7%,77.9%,79%,74.2%,65.6%,70%,80%,"N[C@@H](CSC[C@@H](NC(=O)[C@@H](N)Cc1ccc(O)c(O)c1)C(=O)O)C(=O)O (single isomer, unassigned; peak 1) [LD-LA1 TFA salt, Levodopa Lanthionine Peak 1 TFA Salt]","recovery at 40 min, 10 μM (in vitro; [7]): 86%; recovery at 40 min, 10 μM (in vitro; [8]): 83%; Papp B→A at 40 min, 10 μM (in vitro; [9]): 0.28 ×10⁻⁶ cm/s; Papp B→A at 40 min, 10 μM (in vitro; [10]): 0.22 ×10⁻⁶ cm/s; Papp B→A at 40 min, 10 μM (in vitro; [11]): 0.3 ×10⁻⁶ cm/s"
155 min,158 min,> 60 min,< 116 µL/min/mg,100%,100%,100%,103.4%,{121.2%,103%,68.2%,{139.0%,68%,81.8%,94.1%,88%,80.4%,72.8%,77%,81%,"NC(=O)CC[C@H](NC(=O)[C@@H](N)Cc1ccc(O)c(O)c1)C(=O)O [LD-Gln TFA salt, Levodopa Glutamine TFA Salt] (H-[Dopa]-Gln-OH)","recovery at 40 min, 10 μM (in vitro; [7]): 92%; recovery at 40 min, 10 μM (in vitro; [8]): 87%; Papp B→A at 40 min, 10 μM (in vitro; [9]): 1.01 ×10⁻⁶ cm/s; Papp B→A at 40 min, 10 μM (in vitro; [10]): 0.79 ×10⁻⁶ cm/s; Papp B→A at 40 min, 10 μM (in vitro; [11]): 0.9 ×10⁻⁶ cm/s"
